Laboratory results taken from paper PMC10770970, “Synthesis and cytotoxic activity evaluation of novel imidazopyridine carbohydrazide derivatives” (BMC Chemistry, 2024).
“Also recorded” adds a separate entry of the source.

Experiments:
[1] = system: MCF-7 (human breast adenocarcinoma) cells; test: MTT reduction cytotoxicity assay, MCF-7; type: cell-based; conditions: ± S.E.M., max tested 100 µM
Procedure: (§1) All synthesized compounds were evaluated for cytotoxic activity against three human cancer cell lines including MCF-7, HT-29, and K562 by employing an MTT (3-(4,5-dimethylthiazol-2-yl)-2,5-diphenyltetrazolium bromide) assay. […] Cisplatin and doxorubicin were tested as standard chemotherapeutic reference agents.
(§2) MCF-7 (human breast adenocarcinoma), HT-29 (Human colorectal adenocarcinoma), K562 (human chronic myelogenous leukemia), and Vero (kidney epithelial cells of African green monkey) cells were obtained from Iranian Biological Resource Center, Tehran, Iran. MCF-7, K562, and Vero cells were cultured in RPMI 1640 medium containing 10% heat-inactivated fetal bovine serum (FBS) and 1% penicillin/streptomycin, while HT-29 cells were grown in DMEM low glucose, containing 20% heat-inactivated FBS and 1% penicillin/streptomycin. All cells were grown in monolayer culture at 37 °C in a humidified incubator with 5% CO2.
(§3) Assessment of cell viability after exposure of cancer and non-cancer cells to synthetic compounds was performed using the MTT (3-(4,5-dimethylthiazol-2-yl)-2,5-diphenyltetrazolium bromide) reduction assay. Cells were plated in 96-well microplates at densities of 30,000 cells/mL (100 μL in each well). The plates were incubated overnight at 37 °C and then 50 μL of the growth medium was replaced with the same amount of fresh medium containing 3–4 different concentrations of synthesized analogs at the final concentrations of 10–100 µM. Test compounds were initially dissolved in DMSO and then diluted in the growth medium. The upper limit of DMSO concentration in each well was 0.5%. After 72 h of incubation, 80 μL of the solution in each well was substituted with the same quantity of the growth medium comprising of MTT solution at 0.5 mg/mL. Cells were subsequently incubated at 37 °C for 4 h and then 80 μL of the solution in each well was removed. The introduction of DMSO (200 μL) to each well caused the formazan crystals formed inside the viable cells to dissolve. The process lasted 1.5 h (1 h of incubation and 30 min of shaking). The optical absorbance of the final solution was quantified at the wavelength of 570 nm using a microplate reader. IC50 values for all derivatives were calculated using CurveExpert 1.34 software.

[2] = system: K562 (human chronic myelogenous leukemia) cells; test: MTT reduction cytotoxicity assay, K562; type: cell-based; conditions: ± S.E.M., max tested 100 µM
Procedure: as §1, §2, §3

[3] = system: Vero (kidney epithelial cells of African green monkey) cells; test: MTT reduction cytotoxicity assay, Vero non-cancer cells; type: cell-based; conditions: 72 h, ± S.E.M., max tested 100 µM
Procedure: as §1, §2, §3

[4] = system: HT-29 (Human colorectal adenocarcinoma) cells; test: MTT reduction cytotoxicity assay, HT-29; type: cell-based; conditions: ± S.E.M., max tested 100 µM
Procedure: as §1, §2, §3

MCF-7 cells [5] = test: Apoptosis by Hoechst 33,258 staining; type: cell-based, human; conditions: 100 µM, 72 h
Procedure: This also further adds to the potential value of this derivative as an anticancer agent, as it is known that apoptosis evasion is an important hallmark of cancer, and apoptosis induction capacity is an important feature of any successful therapeutic agent.
Fig. 4 Measurement of apoptosis induced by Hoechst 33,258 staining assay. […] The cells were then stained with 2.5 µg/ml Hoechst 33,258 after being fixed with 4% cold paraformaldehyde (PFA) and imaged using a fluorescence microscope (Magnification: 500 X). Apoptotic cells as featured by nuclear shrinkage, fragmentation, condensation, etc., are shown by red arrows
Hoechst 33,258 staining assay was used to determine apoptosis induction in cancer cells. Hoechst 33,258 is a fluorescent dye that binds to minor grooves in DNA and is commonly used to determine the characteristic features of apoptosis including condensation and fragmentation, etc. in the cell’s nuclei. MCF-7 cells were cultured in 6-well plates at a density of 10^5 cells/ml and exposed to 100 µM of compound 7d for 72 h. The growth medium was completely removed at the end of the incubation time and the cells were fixed with 1 ml of 4% cold freshly prepared paraformaldehyde (PFA) and incubated for 20 min. […] In the end, the cells were washed twice with PBS and imaged with a fluorescence microscope (Nikon model DS-Ri2).

MCF-7 cells [6] = test: Cell cycle analysis by RNase/propidium iodide flow cytometry; type: cell-based, human; conditions: 48 h; for Percent of MCF-7 cells in Sub G1: control 0.8 ± 0.3; for Percent of MCF-7 cells in S: control 11.7 ± 2.3; for Percent of MCF-7 cells in G2/M: control 26.1 ± 2.9; for Percent of MCF-7 cells in G0/G1: control 61.4 ± 1.4
Procedure: Fig. 3 Effect of compound 7d on cell cycle phase distribution of MCF-7 cells. The analysis of cells in different phases of the cell cycle was performed using propidium iodide (PI)-based assessment of cell cycle by flow cytometry. […] The cells were then collected, washed with PBS and fixed with 70% ethanol overnight at −20 °C. After 24 h, the fixed cells were incubated in a PI-RNase solution at room temperature and 10,000 cells were analyzed using a FACS Calibur flow cytometer (BD Biosciences)
The analysis of cells in different phases of the cell cycle and the sub-G1 phase were monitored using RNase/propidium iodide (PI)-based assessment of the cell cycle by flow cytometry. […] At the end of the incubation, the culture media in each well were collected and the cells were washed with PBS. Then, they were fixed with 70% ethanol overnight at −20 °C. After 24 h, the fixed cells were washed with PBS and subsequently stained with DNA staining solution (PI 20 μg/mL and RNase 200 μg/mL) at room temperature for 30 min in the dark. Ten thousand cells of each sample were analyzed using a FACS Calibur flow cytometer (BD Biosciences) and the percentage of the cells in sub-G1, G0/G1, S, and G2/M phases were calculated using CellQuest (BD, USA) software.

Structure (SMILES) | IC50 ([1]; Homo sapiens, MCF7, 72 h) [µM] | IC50 ([2]; Homo sapiens, K562, 72 h) [µM] | IC50 ([4]; Homo sapiens, HT-29, 72 h) [µM] | melting point [°C] | IC50 ([3]; Chlorocebus sabaeus, Vero) [µM] | also measured
N.N.[Cl][Pt][Cl] [Cisplatin, reference compound] | – | – | – | – | – | IC50 ([1]; 72 h): 25.9 ± 6.9 µM; IC50 ([2]; 72 h): 9.4 ± 0.5 µM; IC50 [3]: 10.6 ± 1.3 µM; IC50 ([4]; 72 h): 22.4 ± 5.8 µM
NNC(=O)c1cn2ccccc2n1 [Compound 5, imidazo[1,2-a]pyridine-2-carbohydrazide] | > 100 | > 100 | > 100 | – | – | –
O=C(NN=Cc1ccccc1)c1cn2ccccc2n1 [Compound 7a, N´-benzylidene imidazo[1,2-a]pyridine-2-carbohydrazide] | > 100 | > 100 | > 100 | 257 to 259 | – | –
O=C(NN=Cc1ccc(F)cc1)c1cn2ccccc2n1 [Compound 7b, N´-(4-fluorobenzylidene)imidazo[1,2-a]pyridine-2-carbohydrazide] | > 100 | > 100 | > 100 | 234 to 236 | – | –
O=C(NN=Cc1ccc(Cl)cc1)c1cn2ccccc2n1 [Compound 7c, N´-(4-chlorobenzylidene)imidazo[1,2-a]pyridine-2-carbohydrazide] | 64.8 ± 11.8 | > 100 | 85.4 ± 10.3 | 226 to 228 | 65.6 ± 4.5 | –
O=C(NN=Cc1ccc(Br)cc1)c1cn2ccccc2n1 [Compound 7d, N´-(4-bromobenzylidene)imidazo[1,2-a]pyridine-2-carbohydrazide] | 22.6 ± 1 | > 100 | 13.4 ± 1.3 | 230 to 232 | > 100 | Apoptosis induction (in words) (MCF-7 cells [5]): induce apoptosis; also recorded: clear signs of apoptosis including nuclear condensation and fragmentation; Percent of MCF-7 cells in Sub G1 (MCF-7 cells [6]; 7d 20 µM): 0.8 ± 0.6%; Percent of MCF-7 cells in S (MCF-7 cells [6]; 7d 20 µM): 11.9 ± 5.7%; Percent of MCF-7 cells in G2/M (MCF-7 cells [6]; 7d 20 µM): 23.3 ± 10.0%; Percent of MCF-7 cells in G0/G1 (MCF-7 cells [6]; 7d 20 µM): 64.2 ± 7.6%; Percent of MCF-7 cells in Sub G1 (MCF-7 cells [6]; 7d 50 µM): 0.8 ± 0.6%; Percent of MCF-7 cells in S (MCF-7 cells [6]; 7d 50 µM): 11.1 ± 4.9%; Percent of MCF-7 cells in G2/M (MCF-7 cells [6]; 7d 50 µM): 21.1 ± 8.8%; Percent of MCF-7 cells in G0/G1 (MCF-7 cells [6]; 7d 50 µM): 67.0 ± 8.4%; Percent of MCF-7 cells in Sub G1 (MCF-7 cells [6]; 7d 100 µM): 1.1 ± 0.9%; Percent of MCF-7 cells in S (MCF-7 cells [6]; 7d 100 µM): 10.2 ± 5.3%; Percent of MCF-7 cells in G2/M (MCF-7 cells [6]; 7d 100 µM): 21.5 ± 7.2%; Percent of MCF-7 cells in G0/G1 (MCF-7 cells [6]; 7d 100 µM): 67.2 ± 7.5%; Effect on cell cycle phase distribution (in words) (MCF-7 cells [6]; MCF-7 cells): dose-dependent increase in the G0/G1 phase and a concomitant decrease in the G2/M phase; also recorded: increased the number of MCF-7 cells in the G0/G1 phase; also recorded: increase the number of cancer cells in the G0/G1 phase; IC50 Vero [3]: completely inactive; also recorded: no toxic effect
Cc1ccc(C=NNC(=O)c2cn3ccccc3n2)cc1 [Compound 7e, N´-(4-methylbenzylidene)imidazo[1,2-a]pyridine-2-carbohydrazide] | > 100 | > 100 | > 100 | 180 to 182 | – | –
C#CCNNC(=O)c1cn2ccccc2n1 [Compound 9, N´-(Prop-2-yn-1-yl) imidazo[1,2-a]pyridine-2-carbohydrazide] | 70.1 ± 5.3 | 23.7 ± 2.3 | 21.4 ± 1.9 | 142 to 144 | 73 ± 9.9 | –
O=C(NNCc1cn(Cc2ccccc2)nn1)c1cn2ccccc2n1 [Compound 11a, N´-((1-benzyl-1H-1,2,3-triazol-4-yl)methyl)imidazo[1,2-a]pyridine-2-carbohydrazide] | 40.3 ± 2.9 | > 100 | 61.2 ± 6.3 | – | > 100 | IC50 Vero [3]: completely inactive
O=C(NNCc1cn(Cc2ccc(F)cc2)nn1)c1cn2ccccc2n1 [Compound 11b, N´-((1-(4-fluorobenzyl)-1H-1,2,3-triazol-4-yl)methyl)imidazo[1,2-a]pyridine-carbohydrazide] | > 100 | > 100 | > 100 | 205 to 207 | – | –
O=C(NNCc1cn(Cc2ccc(Cl)cc2)nn1)c1cn2ccccc2n1 [Compound 11c, N´-((1-(4-chlorobenzyl)-1H-1,2,3-triazol-4-yl)methyl)imidazo[1,2-a]pyridine-carbohydrazide] | > 100 | > 100 | > 100 | 193 to 195 | – | –
O=C(NNCc1cn(Cc2ccc(Br)cc2)nn1)c1cn2ccccc2n1 [Compound 11d, N´-((1-(4-bromobenzyl)-1H-1,2,3-triazol-4-yl)methyl)imidazo[1,2-a]pyridine-carbohydrazide] | > 100 | > 100 | 83.9 | 186 to 188 | > 100 | IC50 MCF-7 ([1]; 72 h): no activity; IC50 K562 ([2]; 72 h): no activity; IC50 Vero [3]: completely inactive; IC50 ([4]; 72 h): 83.8 ± 13.1 µM
Cc1ccc(Cn2cc(CNNC(=O)c3cn4ccccc4n3)nn2)cc1 [Compound 11e, N´-((1-(4-methylbenzyl)-1H-1,2,3-triazol-4-yl)methyl)imidazo[1,2-a]pyridine-carbohydrazide] | > 100 | > 100 | > 100 | 140 to 142 | – | –
COc1cccc2c1C(=O)c1c(O)c3c(c(O)c1C2=O)C[C@@](O)(C(=O)CO)C[C@@H]3O[C@H]1C[C@H](N)[C@H](O)[C@H](C)O1 [Doxorubicin, reference compound] | – | – | – | – | 2.6 ± 0.3 | –
